In assay [1] the target is T1, thioredoxin reductase 1 (TrxR) (Homo sapiens, UniProt Q16881).
T1 construct: gene TXNRD1
T1 sequence (Q16881 1-649): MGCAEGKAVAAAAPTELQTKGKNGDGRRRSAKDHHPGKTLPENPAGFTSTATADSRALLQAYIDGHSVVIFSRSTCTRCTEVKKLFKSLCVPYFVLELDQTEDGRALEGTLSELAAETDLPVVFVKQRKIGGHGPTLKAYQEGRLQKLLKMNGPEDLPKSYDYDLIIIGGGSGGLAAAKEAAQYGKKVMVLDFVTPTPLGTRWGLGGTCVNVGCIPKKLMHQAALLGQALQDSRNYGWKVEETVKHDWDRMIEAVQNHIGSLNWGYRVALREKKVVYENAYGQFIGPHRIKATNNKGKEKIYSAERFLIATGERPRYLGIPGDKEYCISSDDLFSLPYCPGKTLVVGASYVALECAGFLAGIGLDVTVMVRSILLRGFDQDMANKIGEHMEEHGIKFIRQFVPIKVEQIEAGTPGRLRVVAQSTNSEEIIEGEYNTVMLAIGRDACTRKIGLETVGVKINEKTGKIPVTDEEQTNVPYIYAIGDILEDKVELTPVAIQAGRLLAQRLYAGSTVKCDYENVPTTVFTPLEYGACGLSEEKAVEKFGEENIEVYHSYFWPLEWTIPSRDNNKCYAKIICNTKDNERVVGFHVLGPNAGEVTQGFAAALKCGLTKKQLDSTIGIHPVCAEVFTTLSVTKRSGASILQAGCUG
In words: DARTS proteomics in HEK293T lysate; TrxR activity assay in lysates of treated HCT116 cells. The assay is classed as cell-based.

Assay [2] concerns the target T2, inositol-3-phosphate synthase (Homo sapiens, UniProt Q9NPH2).
T2 construct: gene ISYNA1
T2 sequence (Q9NPH2 1-558): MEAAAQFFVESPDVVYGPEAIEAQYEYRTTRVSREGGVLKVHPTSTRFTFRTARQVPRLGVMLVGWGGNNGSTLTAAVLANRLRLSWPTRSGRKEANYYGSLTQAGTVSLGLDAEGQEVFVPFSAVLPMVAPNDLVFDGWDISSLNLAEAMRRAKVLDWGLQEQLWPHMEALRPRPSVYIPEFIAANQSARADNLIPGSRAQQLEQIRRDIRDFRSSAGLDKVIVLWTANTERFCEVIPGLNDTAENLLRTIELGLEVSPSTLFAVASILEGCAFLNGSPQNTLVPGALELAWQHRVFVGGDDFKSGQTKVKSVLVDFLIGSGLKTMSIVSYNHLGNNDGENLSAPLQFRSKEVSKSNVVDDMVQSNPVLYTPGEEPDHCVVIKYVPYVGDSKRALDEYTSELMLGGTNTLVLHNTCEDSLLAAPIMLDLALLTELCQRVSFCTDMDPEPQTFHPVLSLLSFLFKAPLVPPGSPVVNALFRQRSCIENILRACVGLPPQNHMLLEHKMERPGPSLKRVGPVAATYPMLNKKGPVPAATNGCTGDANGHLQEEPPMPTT
In words: DARTS proteomics in HEK293T lysate ([…]). The class given is cell-based.

In general, IC50 refers to the concentration at which inhibition is half-maximal. In assay [1], `CC1(C)[C@H]2COc3ccc4ccccc4c3[C@H]2N=C2SC(c3ccccc3)=C(c3ccccc3)N21` [SIMR1281, (8aS,14aS)-9,9-dimethyl-11,12-diphenyl-8a,14a-dihydro-8H,9H-benzo[5, 6]chromeno[4,3-d]thiazolo[3,2-a]pyrimidine] displayed an IC50 of 2420 nM. For the same compound, the “DARTS proteomics in HEK293T lysate (0.01-1 μM)” value in assay [2] is “SIMR1281 has shown a concentration-dependent affinity toward the inositol-3-phosphate synthase enzyme in the DARTS proteomic assay”.

The values above are taken from article PMC8201054, “A Novel Benzopyrane Derivative Targeting Cancer Cell Metabolic and Survival Pathways” (Cancers, 2021).
